Experimental data taken from PubChem BioAssay AID330 (DTP/NCI, 2004).
Values joined by “and” are separate entries in the source; they are usually repeats but may differ in a detail not shown here. Equal entries are not always repeated. Toxic doses and inconclusive results are not listed. The calls were made as follows: active = survival T/C of 150% or more; inactive = T/C below 125% in these data.

Test system: P388 leukemia ip, CD2F1 mice, survival T/C
Assay: NCI In Vivo Anticancer Drug Screen. Data for tumor model P388 Leukemia (intraperitoneal) in CD2F1 (CDF1) mice
Settings: endpoint: median survival time, higher = longer survival
In short: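 Mice carrying the transplanted tumor received test compound or vehicle. Survival was recorded in each group, and the value is the treated-group measurement divided by that of the vehicle-treated control group.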

[1] = dose: 50.0 mg/kg/injection, schedule: Q01DX005 (ip), vehicle: saline with Tween-80
[2] = dose: 100.0 mg/kg/injection, schedule: Q01DX005 (ip), vehicle: saline with Tween-80
[3] = dose: 200.0 mg/kg/injection, schedule: Q01DX005 (ip), vehicle: saline with Tween-80
[4] = dose: 12.5 mg/kg/injection, schedule: Q01DX009 (ip), vehicle: saline with Tween-80
[5] = dose: 25.0 mg/kg/injection, schedule: Q01DX009 (ip), vehicle: saline with Tween-80
[6] = dose: 50.0 mg/kg/injection, schedule: Q01DX009 (ip), vehicle: Klucel (hydroxypropylcellulose) (HPC)
[7] = dose: 100.0 mg/kg/injection, schedule: Q01DX009 (ip), vehicle: Klucel (hydroxypropylcellulose) (HPC)
[8] = dose: 200.0 mg/kg/injection, schedule: Q01DX009 (ip), vehicle: Klucel (hydroxypropylcellulose) (HPC)
[9] = dose: 50.0 mg/kg/injection, schedule: Q01DX005 (ip), vehicle: Klucel (hydroxypropylcellulose) (HPC)
[10] = dose: 100.0 mg/kg/injection, schedule: Q01DX005 (ip), vehicle: Klucel (hydroxypropylcellulose) (HPC)
[11] = dose: 200.0 mg/kg/injection, schedule: Q01DX005 (ip), vehicle: Klucel (hydroxypropylcellulose) (HPC)
[12] = dose: 50.0 mg/kg/injection, schedule: Q01DX009 (ip), vehicle: saline
[13] = dose: 100.0 mg/kg/injection, schedule: Q01DX009 (ip), vehicle: saline
[14] = dose: 200.0 mg/kg/injection, schedule: Q01DX009 (ip), vehicle: saline
[15] = dose: 6.25 mg/kg/injection, schedule: Q01DX009 (ip), vehicle: saline with Tween-80
[16] = dose: 60.0 mg/kg/injection, schedule: Q01DX005 (ip), vehicle: saline with Tween-80
[17] = dose: 120.0 mg/kg/injection, schedule: Q01DX005 (ip), vehicle: saline with Tween-80
[18] = dose: 240.0 mg/kg/injection, schedule: Q01DX005 (ip), vehicle: saline with Tween-80

Measured: T/C

O=S(=O)(OC1=CCCCCC1)C(F)(F)F
inactive: dose: 50.0 mg/kg/injection, schedule: Q01DX009 (ip), vehicle: olive oil, sesame oil, peanut oil 106 % of control | dose: 100.0 mg/kg/injection, schedule: Q01DX009 (ip), vehicle: olive oil, sesame oil, peanut oil 91 % of control | dose: 200.0 mg/kg/injection, schedule: Q01DX009 (ip), vehicle: olive oil, sesame oil, peanut oil 114 % of control

OC1COC(O)(CN2CCOCC2)C(O)C1O (configuration not stated)
inactive: [1] 100 % of control | [2] 98 % of control | [3] 97 % of control

COc1cccc2c1C(=O)c1c(O)c3c(c(O)c1C2=O)C[C@@](O)(C(=O)CSc1ccccc1)C[C@@H]3OC1CC(N)C(O)C(C)O1 (some centres not stated)
inactive: dose: 0.78 mg/kg/injection, schedule: Q01DX009 (ip), vehicle: water 122 % of control | dose: 12.5 mg/kg/injection, schedule: Q01DX009 (ip), vehicle: water 99 % of control and 91 % of control

NC(N)=NS(=O)(=O)c1ccc([N+](=O)[O-])cc1
inactive: [4] 103 % of control | [5] 107 % of control | dose: 50.0 mg/kg/injection, schedule: Q01DX009 (ip), vehicle: saline with Tween-80 111 % of control

CC1NC(=O)C(C)NC1=O (configuration not stated)
inactive: [6] 93 % of control | [7] 96 % of control | [8] 94 % of control

ClCCN(CCN(CCCl)c1cccc2ccccc12)c1cccc2ccccc12
inactive: dose: 50.0 mg/kg/injection, schedule: Q04DX003 (ip), vehicle: Klucel (hydroxypropylcellulose) (HPC) 104 % of control | dose: 100.0 mg/kg/injection, schedule: Q04DX003 (ip), vehicle: Klucel (hydroxypropylcellulose) (HPC) 103 % of control | dose: 200.0 mg/kg/injection, schedule: Q04DX003 (ip), vehicle: Klucel (hydroxypropylcellulose) (HPC) 107 % of control

CCN(CC)C(=S)C(C)=C(Sc1ccccc1)Sc1ccccc1
inactive: [9] 100 % of control | [10] 99 % of control | [11] 99 % of control

CCOC(=O)c1cc(NO)c(=O)c2ccc(OC)cc2c1
inactive: dose: 25.0 mg/kg/injection, schedule: Q01DX005 (ip), vehicle: saline with Tween-80 91 % of control | [1] 90 % of control and 96 % of control | [2] 89 % of control | [3] 91 % of control

CN(N=O)C1=NC(C)(CCl)P(=O)(NNc2ncccn2)O1 (configuration not stated)
inactive: dose: 60.0 mg/kg/injection, schedule: Q01DX005 (ip), vehicle: saline 108 % of control | dose: 120.0 mg/kg/injection, schedule: Q01DX005 (ip), vehicle: saline 110 % of control

CC(NNC(=S)N1CCCCCC1)c1cccc[n+]1[O-] (configuration not stated)
inactive: [9] 101 % of control | [10] 101 % of control | [11] 93 % of control

O=C1CC[C@H]2[C@@H]3N1c1ccccc1[C@@]31CCN3C/C(=C/CBr)[C@@H]2C[C@H]31
inactive: dose: 7.5 mg/kg/injection, schedule: Q01DX005 (ip), vehicle: Klucel (hydroxypropylcellulose) (HPC) 100 % of control | dose: 15.0 mg/kg/injection, schedule: Q01DX005 (ip), vehicle: Klucel (hydroxypropylcellulose) (HPC) 102 % of control

CC(=O)CC(=O)OC(C)(C)C#CC(C)(C)OC(=O)CC(C)=O
inactive: [12] 102 % of control | [13] 103 % of control | [14] 100 % of control

NC(CS(=O)c1ccc(Cl)cc1)C(=O)O (configuration not stated)
inactive: [15] 95 % of control | [4] 95 % of control | [5] 100 % of control

C/C1=C\C(=O)OCC23CC(O)C4(C)OC4C2OC2CC(OC(=O)/C=C/C=C/C(C(C)O)OCC1O)C3(C)C21CO1 (configuration not stated)
active: dose: 5.0 mg/kg/injection, schedule: Q01DX005 (ip), vehicle: saline + alcohol 155 % of control | dose: 10.0 mg/kg/injection, schedule: Q01DX005 (ip), vehicle: saline + alcohol 172 % of control
inactive: dose: 1.25 mg/kg/injection, schedule: Q01DX005 (ip), vehicle: saline + alcohol 120 % of control | dose: 2.5 mg/kg/injection, schedule: Q01DX005 (ip), vehicle: saline + alcohol 120 % of control

COc1ccc(C2c3c(ccc4ccccc34)Oc3ccc4ccccc4c32)cc1
inactive: [16] 87 % of control | [17] 86 % of control | [18] 90 % of control

O=[N+]([O-])c1cnc[nH]1
inactive: dose: 25.0 mg/kg/injection, schedule: Q01DX009 (ip), vehicle: Klucel (hydroxypropylcellulose) (HPC) 105 % of control | [6] 100 % of control and 101 % of control | [7] 100 % of control and 105 % of control | [8] 99 % of control and 100 % of control | dose: 360.0 mg/kg/injection, schedule: Q01DX001 (ip), vehicle: saline with Tween-80 95 % of control | dose: 600.0 mg/kg/injection, schedule: Q01DX001 (ip), vehicle: saline with Tween-80 100 % of control and 92 % of control | dose: 1000.0 mg/kg/injection, schedule: Q01DX001 (ip), vehicle: saline with Tween-80 99 % of control and 106 % of control

NC(CSCc1ccccc1)C(=O)O (configuration not stated)
inactive: dose: 50.0 mg/kg/injection, schedule: Q01DX091 (ip), vehicle: Klucel (hydroxypropylcellulose) (HPC) 100 % of control | dose: 100.0 mg/kg/injection, schedule: Q01DX091 (ip), vehicle: Klucel (hydroxypropylcellulose) (HPC) 102 % of control | dose: 200.0 mg/kg/injection, schedule: Q01DX091 (ip), vehicle: Klucel (hydroxypropylcellulose) (HPC) 91 % of control | dose: 400.0 mg/kg/injection, schedule: Q01DX091 (ip), vehicle: Klucel (hydroxypropylcellulose) (HPC) 101 % of control

Nc1nc(N)c2c(n1)NC(=O)CC2c1ccccc1 (configuration not stated)
inactive: [16] 97 % of control | [17] 90 % of control | [18] 90 % of control

COc1c(C)n(C2OC(CO)C(O)C2O)ccc1=O (configuration not stated)
inactive: [12] 104 % of control | [13] 100 % of control | [14] 103 % of control | dose: 400.0 mg/kg/injection, schedule: Q01DX009 (ip), vehicle: saline 98 % of control

COc1cc(N=Nc2cccc(C(=O)O)c2)ccc1N(CCCl)CCCl
inactive: [15] 106 % of control | [4] 121 % of control
active: [5] 152 % of control

O=S1(=O)c2ccccc2N(c2ccccc2)c2nccn21
inactive: dose: 100.0 mg/kg/injection, schedule: Q01DX001 (ip), vehicle: saline with Tween-80 101 % of control | dose: 200.0 mg/kg/injection, schedule: Q01DX001 (ip), vehicle: saline with Tween-80 98 % of control | dose: 400.0 mg/kg/injection, schedule: Q01DX001 (ip), vehicle: saline with Tween-80 92 % of control

CN(C)C1CS(=O)(=O)OC2=C1CCc1sccc12 (configuration not stated)
inactive: dose: 60.0 mg/kg/injection, schedule: Q01DX005 (ip), vehicle: Klucel (hydroxypropylcellulose) (HPC) 102 % of control | dose: 120.0 mg/kg/injection, schedule: Q01DX005 (ip), vehicle: Klucel (hydroxypropylcellulose) (HPC) 100 % of control | dose: 240.0 mg/kg/injection, schedule: Q01DX005 (ip), vehicle: Klucel (hydroxypropylcellulose) (HPC) 97 % of control

COc1cccc2c1C(=O)c1c(O)c3c(c(O)c1C2=O)C[C@@](O)(/C(C)=N/NC(=O)c1ccc(O)cc1)C[C@@H]3OC1CC(N)C(O)C(C)O1 (some centres not stated)
inactive: dose: 0.12 mg/kg/injection, schedule: Q01DX009 (ip), vehicle: water 115 % of control | dose: 0.25 mg/kg/injection, schedule: Q01DX009 (ip), vehicle: water 111 % of control | dose: 16.0 mg/kg/injection, schedule: Q01DX009 (ip), vehicle: water 111 % of control | dose: 20.0 mg/kg/injection, schedule: Q01DX001 (ip), vehicle: water 117 % of control
active: dose: 0.5 mg/kg/injection, schedule: Q01DX009 (ip), vehicle: water 152 % of control and 157 % of control | dose: 1.0 mg/kg/injection, schedule: Q01DX009 (ip), vehicle: water 160 % of control | dose: 2.0 mg/kg/injection, schedule: Q01DX009 (ip), vehicle: water 160 % of control and 180 % of control | dose: 4.0 mg/kg/injection, schedule: Q01DX009 (ip), vehicle: water 161 % of control and 171 % of control | dose: 10.0 mg/kg/injection, schedule: Q01DX001 (ip), vehicle: water 174 % of control

Cn1ccnc1CC(C)(O)c1ccccc1 (configuration not stated)
inactive: [16] 103 % of control | [17] 104 % of control | [18] 108 % of control

CC#CS(=O)C#CC
inactive: dose: 3.12 mg/kg/injection, schedule: Q01DX009 (ip), vehicle: distilled water + alcohol 105 % of control | dose: 6.25 mg/kg/injection, schedule: Q01DX009 (ip), vehicle: distilled water + alcohol 105 % of control

COc1nc2[nH]c(C)cc(=O)c2c2ccccc12
inactive: [16] 98 % of control | [17] 98 % of control
